Source: PubChem BioAssay AID248 (DTP/NCI, 2004)
Inconclusive results and toxic doses are left out. No stated cut-off is given here; in the data, active means T/C of 150% or more; inactive means T/C below 125%.

System: L1210 leukemia ip in BDF1 mice, survival T/C
Experiment: NCI In Vivo Anticancer Drug Screen. Data for tumor model L1210 Leukemia (intraperitoneal) in B6D2F1 (BDF1) mice
Settings: endpoint: mean survival time, higher = longer survival
How it was run: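 Antitumor effect is assessed in tumor-bearing animals. Survival in the compound arm is compared with a vehicle-dosed control arm and expressed as their quotient.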

[1] = dose: 100.0 mg/kg/injection, schedule: Q04DX003 (ip), vehicle: saline with Tween-80
[2] = dose: 200.0 mg/kg/injection, schedule: Q04DX003 (ip), vehicle: saline with Tween-80
[3] = dose: 400.0 mg/kg/injection, schedule: Q04DX003 (ip), vehicle: saline with Tween-80
[4] = dose: 100.0 mg/kg/injection, schedule: Q01DX009 (ip), vehicle: saline with Tween-80
[5] = dose: 200.0 mg/kg/injection, schedule: Q01DX009 (ip), vehicle: saline with Tween-80

Measured: T/C

C1COCCN1
inactive: dose: 25.6 mg/kg/injection, schedule: Q04DX002 (ip), vehicle: saline with Tween-80 101 % of control | dose: 64.0 mg/kg/injection, schedule: Q04DX002 (ip), vehicle: saline with Tween-80 101 % of control | [1] 98 % of control | dose: 160.0 mg/kg/injection, schedule: Q04DX002 (ip), vehicle: saline with Tween-80 101 % of control | [2] 101 % of control | dose: 400.0 mg/kg/injection, schedule: Q04DX002 (ip), vehicle: saline with Tween-80 101 % of control | [3] 95 % of control

CC1=CC(C)(C2(O)c3ccccc3-c3ccccc32)C=C(C)C1
inactive: [1] 98 % of control | [2] 95 % of control | [3] 95 % of control

NS(=O)(=O)c1ccc(Cl)c(Cl)c1
inactive: [1] 97 % of control | [2] 103 % of control | [3] 93 % of control

CCCCC(=O)N/N=C/c1ccccc1C(=O)O
inactive: dose: 100.0 mg/kg/injection, schedule: Q01DX001 (ip), vehicle: saline 96 % of control | dose: 200.0 mg/kg/injection, schedule: Q01DX001 (ip), vehicle: saline 107 % of control | dose: 400.0 mg/kg/injection, schedule: Q01DX001 (ip), vehicle: saline 91 % of control

CCN/C(C)=C\C(=O)OCC
inactive: [4] 95 % of control | [1] 96 % of control | [5] 111 % of control | [2] 107 % of control | dose: 400.0 mg/kg/injection, schedule: Q01DX009 (ip), vehicle: saline with Tween-80 95 % of control | [3] 105 % of control

O=C(Nc1ccccc1Cl)Oc1ccc(-c2ccccc2)cc1
inactive: dose: 100.0 mg/kg/injection, schedule: Q04DX002 (ip), vehicle: Klucel (hydroxypropylcellulose) (HPC) 95 % of control | dose: 200.0 mg/kg/injection, schedule: Q04DX002 (ip), vehicle: Klucel (hydroxypropylcellulose) (HPC) 95 % of control | dose: 400.0 mg/kg/injection, schedule: Q04DX002 (ip), vehicle: Klucel (hydroxypropylcellulose) (HPC) 106 % of control

CN(C)C=NC(c1ccccc1)c1ccc(Cl)cc1 (configuration not stated)
inactive: dose: 75.0 mg/kg/injection, schedule: Q01DX009 (ip), vehicle: saline with Tween-80 95 % of control | dose: 150.0 mg/kg/injection, schedule: Q01DX009 (ip), vehicle: saline with Tween-80 95 % of control | dose: 300.0 mg/kg/injection, schedule: Q01DX009 (ip), vehicle: saline with Tween-80 100 % of control

O=C(CCCl)OCC#CCOC(=O)CCCl
inactive: [4] 101 % of control | [5] 94 % of control

CN(C)CCO/C(CN(C)C)=C(\C#N)c1ccccc1
inactive: dose: 15.0 mg/kg/injection, schedule: Q01DX001 (ip), vehicle: carboxymethylcellulose (CMC) 92 % of control | dose: 30.0 mg/kg/injection, schedule: Q01DX001 (ip), vehicle: carboxymethylcellulose (CMC) 95 % of control

COC(=O)C(NC(=O)OCc1ccccc1)C(=O)OC
inactive: [1] 100 % of control | [2] 100 % of control | [3] 98 % of control

CSc1ccnc2c1cnn2C1OC(CO)C(O)C1O (configuration not stated)
inactive: dose: 50.0 mg/kg/injection, schedule: Q01DX005 (ip), vehicle: other 109 % of control | dose: 100.0 mg/kg/injection, schedule: Q01DX005 (ip), vehicle: other 102 % of control | dose: 200.0 mg/kg/injection, schedule: Q01DX005 (ip), vehicle: other 98 % of control

Cc1cc(Cl)ccc1NC(=O)c1cccc(C(=O)Nc2ccc(Cl)cc2C)c1
inactive: dose: 100.0 mg/kg/injection, schedule: Q01DX009 (ip), vehicle: Klucel (hydroxypropylcellulose) (HPC) 97 % of control | dose: 100.0 mg/kg/injection, schedule: Q04DX003 (ip), vehicle: Klucel (hydroxypropylcellulose) (HPC) 98 % of control | dose: 200.0 mg/kg/injection, schedule: Q01DX009 (ip), vehicle: Klucel (hydroxypropylcellulose) (HPC) 92 % of control | dose: 200.0 mg/kg/injection, schedule: Q04DX003 (ip), vehicle: Klucel (hydroxypropylcellulose) (HPC) 90 % of control | dose: 400.0 mg/kg/injection, schedule: Q01DX009 (ip), vehicle: Klucel (hydroxypropylcellulose) (HPC) 87 % of control | dose: 400.0 mg/kg/injection, schedule: Q04DX003 (ip), vehicle: Klucel (hydroxypropylcellulose) (HPC) 93 % of control

NC(=S)NNC(N)=S
inactive: dose: 50.0 mg/kg/injection, schedule: Q01DX001 (ip), vehicle: Klucel (hydroxypropylcellulose) (HPC) 90 % of control | dose: 100.0 mg/kg/injection, schedule: Q01DX001 (ip), vehicle: Klucel (hydroxypropylcellulose) (HPC) 97 % of control | dose: 200.0 mg/kg/injection, schedule: Q01DX001 (ip), vehicle: Klucel (hydroxypropylcellulose) (HPC) 100 % of control
